According to patent US10995101B2, “2-oxo-thiazole derivatives as A2A inhibitors and compounds for use in the treatment of cancers” (iTeos Therapeutics SA, priority 2017, dated 2021):

How the values were obtained:
in vitro = settings: human, Caco-2, pH 7.4
Protocol: 2 μM dosing solutions for reference compounds and test compounds are prepared by spiking the appropriate volume of intermediate solution to TB with and without 1 μM Zosuquidar. The final concentration of DMSO is no more than 1% (v/v).
Caco-2 cells are grown in MEM supplemented with 2 mM L-glutamine, 10% FBS, 100 U/mL penicillin-G and 100 μg/mL streptomycin. The cells are incubated at 37° C., 5% CO2 and relatively saturated humidity. After reaching 80-90% confluency, the cells are gently detached with 0.05% trypsin-EDTA solution.
TB and dosing solutions were pre-warmed to 37° C. before transport assay. The cell monolayer was washed twice with HBSS containing 10 mM HEPES. For A-B (apical to basolateral) directional transport assay, 75 μL dosing solution is added to the apical well. Fill each basolateral well with 250 μL TB. For B-A (basolateral to apical) directional transport assay, 250 μL of dosing solution is added to the basolateral well after filling each apical well with 75 μL TB. […] The plates are incubated for 120 minutes at 37° C. with 5% CO2 and saturated humidity. The time zero samples are generated by mixing 50 μL initial dosing solution of test compound or reference compound with 100 μL TB and 250 μL quench solution (acetonitrile (ACN) or other appropriate solvent with internal standard(s), based on the bioanalytical method development). At 120 minutes, 150 μL of solution is collected from each A-B receiver well followed by addition of 250 μL quench solution to get A-B receiver sample. And for other samples (A-B donor, B-A donor and receiver), 50 μL of solution is collected from each corresponding well followed by addition of 250 μL quench solution and 100 μL TB. All samples are vortex-mixed and centrifuged at 3220 g for 20 minutes. Subsequently, supernatant is diluted with ultra pure water for LC-MS/MS analysis. The concentrations of test compound in all samples are determined by LC-MS/MS and expressed as peak area ratio of analyte to internal standard.
The concentration of samples is expressed using the peak area ratio of Analyte to Internal Standard (Analyte/IS).
The efflux ratio is calculated using the following equation: Efflux ratio=Papp(A−B)/Papp(B−A) • where Papp (A−B) and Papp (B−A) are the Papp values of compound in Apical to Basolateral and Basolateral to Apical directional transport, respectively.

A2A receptor = A2A receptor (Homo sapiens, UniProt P29274); experiment: Inhibition of cAMP production in HEK cells; format: cell-based; settings: HEK-293 cells with A2A receptor
[1] = IC50 (nM) (3 nM NECA as agonist, 0.1% BSA), 3 nM NECA as agonist, 0.1% BSA
[2] = IC50 (nM) (5 μM Adenosine as agonist, 2.0% HSA), 5 μM Adenosine as agonist, 2.0% HSA

Sequence of A2A receptor (P29274 whole entry): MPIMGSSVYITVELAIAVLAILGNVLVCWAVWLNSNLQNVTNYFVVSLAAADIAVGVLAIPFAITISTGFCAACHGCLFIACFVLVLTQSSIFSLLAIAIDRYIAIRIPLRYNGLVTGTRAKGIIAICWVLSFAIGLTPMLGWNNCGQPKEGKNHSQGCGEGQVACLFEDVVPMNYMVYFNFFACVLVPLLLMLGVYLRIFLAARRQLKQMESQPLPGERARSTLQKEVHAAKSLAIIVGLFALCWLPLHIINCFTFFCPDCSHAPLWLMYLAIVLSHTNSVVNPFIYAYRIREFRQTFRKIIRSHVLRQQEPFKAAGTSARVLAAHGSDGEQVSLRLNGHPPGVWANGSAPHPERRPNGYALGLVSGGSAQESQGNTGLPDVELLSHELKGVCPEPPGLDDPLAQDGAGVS

Row | Structure (SMILES) | efflux ratio at 120 min, 2 μM (in vitro) | IC50 (A2A receptor; [1]) | IC50 (A2A receptor; [2])
1 | CS(=N)(=O)c1ccc(N2CCN(CCn3c(=O)sc4c3nc(N)n3nc(-c5ccco5)nc43)CC2)c(F)c1 (centres unmarked) [Compound 80, 5-amino-3-(2-(4-(2-fluoro-4-(S-methylsulfonimidoyl)phenyl)piperazin-1-yl)ethyl)-8-(furan-2-yl)thiazolo[5,4-e][1,2,4]triazolo[1,5-c]pyrimidin-2(3H)-one] | 149 | 0.4 nM | 146 nM
2 | Cc1cc(N2CCN(CCn3c(=O)sc4c3nc(N)n3nc(-c5ccco5)nc43)CC2)c(F)cn1 [Compound 82, 5-amino-3-(2-(4-(5-fluoro-2-methylpyridin-4-yl)piperazin-1-yl)ethyl)-8-(furan-2-yl)thiazolo[5,4-e][1,2,4]triazolo[1,5-c]pyrimidin-2(3H)-one] | 3 | 0.2 nM | 15 nM
3 | Nc1nc2c(sc(=O)n2CCN2CCN(c3ccc(O[C@@H]4COC[C@H]4O)cc3F)CC2)c2nc(-c3ccco3)nn12 [Compound 83, 5-amino-3-(2-(4-(2-fluoro-4-(((3R,4R)-4-hydroxytetrahydrofuran-3-yl)oxy)phenyl)piperazin-1-yl)ethyl)-8-(furan-2-yl)thiazolo[5,4-e][1,2,4]triazolo[1,5-c]pyrimidin-2(3H)-one] | 29 | 0.4 nM | 212 nM
4 | Nc1nc2c(sc(=O)n2CCN2CCN(c3ccc(O[C@H]4COC[C@@H]4O)cc3F)CC2)c2nc(-c3ccco3)nn12 [Compound 84, 5-amino-3-(2-(4-(2-fluoro-4-(((3S,4S)-4-hydroxytetrahydrofuran-3-yl)oxy)phenyl)piperazin-1-yl)ethyl)-8-(furan-2-yl)thiazolo[5,4-e][1,2,4]triazolo[1,5-c]pyrimidin-2(3H)-one] | 24 | 0.1 nM | 71 nM
5 | CC(C)(O)COc1ccc(N2CCN(CCn3c(=O)sc4c3nc(N)n3nc(-c5ccco5)nc43)CC2)c(F)c1 [Compound 85, 5-amino-3-(2-(4-(2-fluoro-4-(2-hydroxy-2-methylpropoxy)phenyl)piperazin-1-yl)ethyl)-8-(furan-2-yl)thiazolo[5,4-e][1,2,4]triazolo[1,5-c]pyrimidin-2(3H)-one] | 5 | 0.4 nM | 220 nM
6 | CC(C)(O)c1ccc(N2CCN(CCn3c(=O)sc4c3nc(N)n3nc(-c5ccco5)nc43)CC2)c(F)c1 [Compound 86, 5-amino-3-(2-(4-(2-fluoro-4-(2-hydroxypropan-2-yl)phenyl)piperazin-1-yl)ethyl)-8-(furan-2-yl)thiazolo[5,4-e][1,2,4]triazolo[1,5-c]pyrimidin-2(3H)-one] | 5 | 0.6 nM | 747 nM
7 | Nc1nc2c(sc(=O)n2CCN2CCN(c3ccc(OCC(O)C(F)(F)F)cc3F)CC2)c2nc(-c3ccco3)nn12 (centres unmarked) [Compound 87, 5-amino-3-(2-(4-(2-fluoro-4-(3,3,3-trifluoro-2-hydroxypropoxy)phenyl)piperazin-1-yl)ethyl)-8-(furan-2-yl)thiazolo[5,4-e][1,2,4]triazolo[1,5-c]pyrimidin-2(3H)-one] | 7 | 1.1 nM | 432 nM
8 | Nc1nc2c(sc(=O)n2CCN2CCN(c3cc(OCCO)ccc3F)CC2)c2nc(-c3ccco3)nn12 [Compound 88, 5-amino-3-(2-(4-(2-fluoro-5-(2-hydroxyethoxy)phenyl)piperazin-1-yl)ethyl)-8-(furan-2-yl)thiazolo[5,4-e][1,2,4]triazolo[1,5-c]pyrimidin-2(3H)-one] | 19 | 0.2 nM | 22 nM
9 | Nc1nc2c(sc(=O)n2CCN2CCN(c3cc(OCC4CNCCO4)c(F)cc3F)CC2)c2nc(-c3ccco3)nn12 (centres unmarked) [Compound 89, 5-amino-3-(2-(4-(2,4-difluoro-5-(morpholin-2-ylmethoxy)phenyl)piperazin-1-yl)ethyl)-8-(furan-2-yl)thiazolo[5,4-e][1,2,4]triazolo[1,5-c]pyrimidin-2(3H)-one] | 456 | 0.6 nM | 9 nM
10 | Nc1nc2c(sc(=O)n2CCN2CCN(c3cc(OCC4COCCN4)c(F)cc3F)CC2)c2nc(-c3ccco3)nn12 (centres unmarked) [Compound 90, 5-amino-3-(2-(4-(2,4-difluoro-5-(morpholin-3-ylmethoxy)phenyl)piperazin-1-yl)ethyl)-8-(furan-2-yl)thiazolo[5,4-e][1,2,4]triazolo[1,5-c]pyrimidin-2(3H)-one] | 86 | 5.7 nM | 24 nM
11 | Nc1nc2c(sc(=O)n2CCN2CCN(c3cc(O[C@H]4CCNC4=O)c(F)cc3F)CC2)c2nc(-c3ccco3)nn12 [Compound 95, (S)-5-amino-3-(2-(4-(2,4-difluoro-5-((2-oxopyrrolidin-3-yl)oxy)phenyl)piperazin-1-yl)ethyl)-8-(furan-2-yl)thiazolo[5,4-e][1,2,4]triazolo[1,5-c]pyrimidin-2(3H)-one] | 137 | 0.7 nM | 37 nM
12 | Nc1nc2c(sc(=O)n2CCN2CCN(c3cc(O[C@@H]4CCNC4=O)c(F)cc3F)CC2)c2nc(-c3ccco3)nn12 [Compound 96, (R)-5-amino-3-(2-(4-(2,4-difluoro-5-((2-oxopyrrolidin-3-yl)oxy)phenyl)piperazin-1-yl)ethyl)-8-(furan-2-yl)thiazolo[5,4-e][1,2,4]triazolo[1,5-c]pyrimidin-2(3H)-one] | 118 | 0.4 nM | 19 nM
13 | Nc1nc2c(sc(=O)n2CCN2CCN(c3cc(C(=O)NCC4COCCN4)c(F)cc3F)CC2)c2nc(-c3ccco3)nn12 (centres unmarked) [Compound 98, 5-(4-(2-(5-amino-8-(furan-2-yl)-2-oxothiazolo[5,4-e][1,2,4]triazolo[1,5-c]pyrimidin-3(2H)-yl)ethyl)piperazin-1-yl)-2,4-difluoro-N-(morpholin-3-ylmethyl)benzamide] | 53 | 0.1 nM | 7 nM
14 | Nc1nc2c(sc(=O)n2CCN2CCN(c3ccc(OCC4COCCN4)cc3F)CC2)c2nc(-c3ccco3)nn12 (centres unmarked) [Compound 99, 5-amino-3-(2-(4-(2-fluoro-4-(morpholin-3-ylmethoxy)phenyl)piperazin-1-yl)ethyl)-8-(furan-2-yl)thiazolo[5,4-e][1,2,4]triazolo[1,5-c]pyrimidin-2(3H)-one] | 13 | 0.5 nM | 64 nM
15 | Nc1nc2c(sc(=O)n2CCN2CCN(c3ccc(OCC4CNCCO4)cc3F)CC2)c2nc(-c3ccco3)nn12 (centres unmarked) [Compound 100, 5-amino-3-(2-(4-(2-fluoro-4-(morpholin-2-ylmethoxy)phenyl)piperazin-1-yl)ethyl)-8-(furan-2-yl)thiazolo[5,4-e][1,2,4]triazolo[1,5-c]pyrimidin-2(3H)-one] | 66 | 0.1 nM | 10 nM
16 | Nc1nc2c(sc(=O)n2CCN2CCN(c3ccc(O[C@@H]4CNC[C@H]4F)cc3F)CC2)c2nc(-c3ccco3)nn12 [Compound 101, 5-amino-3-(2-(4-(2-fluoro-4-(((3R,4R)-4-fluoropyrrolidin-3-yl)oxy)phenyl)piperazin-1-yl)ethyl)-8-(furan-2-yl)thiazolo[5,4-e][1,2,4]triazolo[1,5-c]pyrimidin-2(3H)-one] | 81 | 0.7 nM | 124 nM
17 | Nc1nc2c(sc(=O)n2CCN2CCN(c3ccc(O[C@H]4CNC[C@@H]4F)cc3F)CC2)c2nc(-c3ccco3)nn12 [Compound 102, 5-amino-3-(2-(4-(2-fluoro-4-(((3S,4S)-4-fluoropyrrolidin-3-yl)oxy)phenyl)piperazin-1-yl)ethyl)-8-(furan-2-yl)thiazolo[5,4-e][1,2,4]triazolo[1,5-c]pyrimidin-2(3H)-one] | 91 | 0.7 nM | 185 nM
18 | Nc1nc2c(sc(=O)n2CCN2CCN(c3ccc(O[C@@H]4CNC[C@@H]4F)cc3F)CC2)c2nc(-c3ccco3)nn12 [Compound 103, 5-amino-3-(2-(4-(2-fluoro-4-(((3R,4S)-4-fluoropyrrolidin-3-yl)oxy)phenyl)piperazin-1-yl)ethyl)-8-(furan-2-yl)thiazolo[5,4-e][1,2,4]triazolo[1,5-c]pyrimidin-2(3H)-one] | 20 | 1.1 nM | 
19 | Nc1nc2c(sc(=O)n2CCN2CCN(c3ccc(O[C@H]4CNC[C@H]4F)cc3F)CC2)c2nc(-c3ccco3)nn12 [Compound 104, 5-amino-3-(2-(4-(2-fluoro-4-(((3S,4R)-4-fluoropyrrolidin-3-yl)oxy)phenyl)piperazin-1-yl)ethyl)-8-(furan-2-yl)thiazolo[5,4-e][1,2,4]triazolo[1,5-c]pyrimidin-2(3H)-one] | 20 | 0.5 nM | 45 nM
20 | Nc1nc2c(sc(=O)n2CCN2CCN(c3ccc(C(=O)NCC4COCCN4)cc3F)CC2)c2nc(-c3ccco3)nn12 (centres unmarked) [Compound 107, 4-(4-(2-(5-amino-8-(furan-2-yl)-2-oxothiazolo[5,4-e][1,2,4]triazolo[1,5-c]pyrimidin-3(2H)-yl)ethyl)piperazin-1-yl)-3-fluoro-N-(morpholin-3-ylmethyl)benzamide] | 680 | 0.1 nM | 35 nM
21 | Nc1nc2c(sc(=O)n2CCN2CCN(c3ccc(OC4CNC4)cc3)CC2)c2nc(-c3ccco3)nn12 [Compound 108, 5-amino-3-(2-(4-(4-(azetidin-3-yloxy)phenyl)piperazin-1-yl)ethyl)-8-(furan-2-yl)thiazolo[5,4-e][1,2,4]triazolo[1,5-c]pyrimidin-2(3H)-one] | 191 | 0.7 nM | 172 nM
22 | Nc1nc2c(sc(=O)n2CCN2CCN(c3cc(O[C@H]4CC[S@@+]([O-])CC4)c(F)cc3F)CC2)c2nc(-c3ccco3)nn12 [Compound 111, 5-amino-3-(2-(4-(2,4-difluoro-5-(((1s,4s)-1-oxidotetrahydro-2H-thiopyran-4-yl)oxy)phenyl)piperazin-1-yl)ethyl)-8-(furan-2-yl)thiazolo[5,4-e][1,2,4]triazolo[1,5-c]pyrimidin-2(3H)-one] | 583 | 0.6 nM | 91 nM
